# The NIST ThermoML archive (doi:10.1016/j.jct.2016.05.005)
# ± gives the expanded uncertainty stated by the source.
# Columns and labels:
# [1] = Molar enthalpy of transition or fusion; conditions: Crystal; DSC
# [2] = Crystal; DTA
structure (smiles),measurement,setting,value
COC(=O)N(OC)c1ccccc1COc1ccn(-c2ccc(Cl)cc2)n1 [Pyraclostrobin],Molar enthalpy of transition or fusion,[1],7.42 ± 0.311 kcal/mol
same,Normal melting temperature,[2],60.6 ± 0.6 °C
